# Results from patent publication US6737383B1, “Herbicidal oxadiazolidines” (priority 1999, dated 2004).
# What was measured:
# Alexandergrass = experiment: Test D Alexandergrass; format: in vivo, Brachiaria plantaginea; details: Preemergence, 0 to 100 scale
# Method in brief: (§1)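 Greenhouse pots, seeds in sandy loam; compounds formulated in non-phytotoxic solvent with surfactant; preemergence treatments went on the soil surface within one day of planting. Injury rated visually 14 to 21 days after application on a 0 (none) to 100 (complete control) scale.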
# bermuda-grass = experiment: Test D bermudagrass; format: in vivo, Cynodon dactylon; details: Preemergence, 0 to 100 scale
# Method in brief: as §1
# common pursiane = experiment: Test D common purslane; format: in vivo, Portulaca oleracea; details: Preemergence, 0 to 100 scale
# Method in brief: as §1
# common ragweed = experiment: Test D common ragweed; format: in vivo, Ambrosia elatior; details: Preemergence, 0 to 100 scale
# Method in brief: as §1
# dallisgrass = experiment: Test D dallisgrass; format: in vivo, Paspalum dilatatum; details: Preemergence, 0 to 100 scale
# Method in brief: as §1
# goosegrass = experiment: Test D goosegrass; format: in vivo, Eleusine indica; details: Preemergence, 0 to 100 scale
# Method in brief: as §1
# guineagrass = experiment: Test D guineagrass; format: in vivo, Panicum maximum; details: Preemergence, 0 to 100 scale
# Method in brief: as §1
# itchgrass = experiment: Test D itchgrass; format: in vivo, Rottboellia exaltata; details: Preemergence, 0 to 100 scale
# Method in brief: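 Scoring used a 0–100 visual injury scale, with 0 meaning no effect and 100 complete control, assessed 14–21 days after application alongside untreated pots. Preemergence treatments went onto sandy loam surfaces of separately potted seeds within a day of sowing.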
# Johnson grass = experiment: Test D Johnson grass; format: in vivo, Sorghum halepense; details: Preemergence, 0 to 100 scale
# Method in brief: as §1
# large crabgrass = experiment: Test D large crabgrass; format: in vivo, Digitaria sanguinalis; details: Preemergence, 0 to 100 scale
# Method in brief: as §1
# pitted morningglory = experiment: Test D pitted morningglory; format: in vivo, Ipomoea lacunosa; details: Preemergence, 0 to 100 scale
# Method in brief: as §1
# purple nutsedge = experiment: Test D purple nutsedge; format: in vivo, Cyperus rotundus; details: Preemergence, 0 to 100 scale
# Method in brief: as §1
# surinam grass = experiment: Test D surinam grass; format: in vivo, Brachiaria decumbens
# Method in brief: as §1
# tall mallow = experiment: Test D tall mallow; format: in vivo, Malva sylvestris; details: Preemergence, 0 to 100 scale
# Method in brief: as §1
# Green foxtail [1] = experiment: Test D green foxtail; format: in vivo; details: Preemergence, 0 to 100 scale
# Method in brief: as §1
# Green foxtail [2] = experiment: Test D green foxtail; format: in vivo
# Method in brief: as §1
# [3] = Rate 16 g/ha, 0 no injury, 100 complete control
# [4] = Rate 32 g/ha, 0 no injury, 100 complete control
# [5] = Rate 64 g/ha, 0 no injury, 100 complete control
# [6] = Rate 125 g/ha, 0 no injury, 100 complete control
# [7] = Rate 16 g/ha; Preemergence; 0 to 100 scale, 0 no injury, 100 complete control
# [8] = Rate 32 g/ha; Preemergence; 0 to 100 scale, 0 no injury, 100 complete control
# [9] = Rate 64 g/ha, Preemergence; 0 to 100 scale, 0 no injury, 100 complete control
# [10] = Rate 125 g/ha, Preemergence; 0 to 100 scale, 0 no injury, 100 complete control
# [11] = Rate 250 g/ha; Preemergence; 0 to 100 scale
# [12] = Rate 500 g/ha, Preemergence; 0 to 100 scale
smiles,measurement,setting,value
CC(C)N(C(=O)n1oc(=O)n(Cc2ccccc2)c1=O)c1ccc(F)cc1 [Compound 78],"Plant response rating, Alexandergrass",Alexandergrass; [3],0
same,"Plant response rating, Alexandergrass",Alexandergrass; [4],0
same,"Plant response rating, Alexandergrass",Alexandergrass; [5],30
same,"Plant response rating, Alexandergrass",Alexandergrass; [6],75
same,"Plant response rating, Alexandergrass",Alexandergrass; Rate 250 g/ha,75
same,"Plant response rating, Alexandergrass",Alexandergrass; Rate 500 g/ha,100
same,"Plant response rating, Bermudagrass",bermuda-grass; [3],75
same,"Plant response rating, Bermudagrass",bermuda-grass; [4],85
same,"Plant response rating, Bermudagrass",bermuda-grass; [5],90
same,"Plant response rating, Bermudagrass",bermuda-grass; [6],98
same,"Plant response rating, Bermudagrass",bermuda-grass; Rate 250 g/ha,100
same,"Plant response rating, Bermudagrass",bermuda-grass; Rate 500 g/ha,100
same,"Plant response rating, C. purslane",common pursiane; [3],0
same,"Plant response rating, C. purslane",common pursiane; [4],0
same,"Plant response rating, C. purslane",common pursiane; [5],0
same,"Plant response rating, C. purslane",common pursiane; [6],0
same,"Plant response rating, C. purslane",common pursiane; Rate 250 g/ha,0
same,"Plant response rating, C. purslane",common pursiane; Rate 500 g/ha,0
same,"Plant response rating, C. ragweed",common ragweed; [3],0
same,"Plant response rating, C. ragweed",common ragweed; [4],0
same,"Plant response rating, C. ragweed",common ragweed; [5],0
same,"Plant response rating, C. ragweed",common ragweed; [6],0
same,"Plant response rating, C. ragweed",common ragweed; Rate 250 g/ha,0
same,"Plant response rating, C. ragweed",common ragweed; Rate 500 g/ha,0
same,"Plant response rating, Dallisgrass",dallisgrass; [3],0
same,"Plant response rating, Dallisgrass",dallisgrass; [4],0
same,"Plant response rating, Dallisgrass",dallisgrass; [5],75
same,"Plant response rating, Dallisgrass",dallisgrass; [6],100
same,"Plant response rating, Dallisgrass",dallisgrass; Rate 250 g/ha,100
same,"Plant response rating, Dallisgrass",dallisgrass; Rate 500 g/ha,100
same,"Plant response rating, Goosegrass",goosegrass; [3],10
same,"Plant response rating, Goosegrass",goosegrass; [4],10
same,"Plant response rating, Goosegrass",goosegrass; [5],85
same,"Plant response rating, Goosegrass",goosegrass; [6],98
same,"Plant response rating, Goosegrass",goosegrass; Rate 250 g/ha,98
same,"Plant response rating, Goosegrass",goosegrass; Rate 500 g/ha,100
same,"Plant response rating, Guineagrass",guineagrass; [3],20
same,"Plant response rating, Guineagrass",guineagrass; [4],20
same,"Plant response rating, Guineagrass",guineagrass; [5],65
same,"Plant response rating, Guineagrass",guineagrass; [6],85
same,"Plant response rating, Guineagrass",guineagrass; Rate 250 g/ha,100
same,"Plant response rating, Guineagrass",guineagrass; Rate 500 g/ha,100
same,"Plant response rating, Itchgrass",itchgrass; [3],0
same,"Plant response rating, Itchgrass",itchgrass; [4],0
same,"Plant response rating, Itchgrass",itchgrass; [5],0
same,"Plant response rating, Itchgrass",itchgrass; [6],0
same,"Plant response rating, Itchgrass",itchgrass; Rate 250 g/ha,10
same,"Plant response rating, Itchgrass",itchgrass; Rate 500 g/ha,20
same,"Plant response rating, Johnsongrass",Johnson grass; [3],0
same,"Plant response rating, Johnsongrass",Johnson grass; [4],0
same,"Plant response rating, Johnsongrass",Johnson grass; [5],0
same,"Plant response rating, Johnsongrass",Johnson grass; [6],0
same,"Plant response rating, Johnsongrass",Johnson grass; Rate 250 g/ha,20
same,"Plant response rating, Johnsongrass",Johnson grass; Rate 500 g/ha,20
same,"Plant response rating, Large crabgrass",large crabgrass; [3],0
same,"Plant response rating, Large crabgrass",large crabgrass; [4],40
same,"Plant response rating, Large crabgrass",large crabgrass; [5],98
same,"Plant response rating, Large crabgrass",large crabgrass; [6],100
same,"Plant response rating, Large crabgrass",large crabgrass; Rate 250 g/ha,100
same,"Plant response rating, Large crabgrass",large crabgrass; Rate 500 g/ha,100
same,"Plant response rating, P. morninglory",pitted morningglory; [3],0
same,"Plant response rating, P. morninglory",pitted morningglory; [4],0
same,"Plant response rating, P. morninglory",pitted morningglory; [5],0
same,"Plant response rating, P. morninglory",pitted morningglory; [6],0
same,"Plant response rating, P. morninglory",pitted morningglory; Rate 250 g/ha,0
same,"Plant response rating, P. morninglory",pitted morningglory; Rate 500 g/ha,0
same,"Plant response rating, Purple nutsedge",purple nutsedge; [3],0
same,"Plant response rating, Purple nutsedge",purple nutsedge; [4],0
same,Purple nutsedge plant response rating,purple nutsedge; [5],0
same,Purple nutsedge plant response rating,purple nutsedge; [6],0
same,"Plant response rating, Purple nutsedge",purple nutsedge; Rate 250 g/ha,0
same,"Plant response rating, Purple nutsedge",purple nutsedge; Rate 500 g/ha,0
same,"Plant response rating, Surinam grass",surinam grass; [7],0
same,"Plant response rating, Surinam grass",surinam grass; [8],0
same,Surinam grass plant response rating,surinam grass; [9],20
same,Surinam grass plant response rating,surinam grass; [10],30
same,"Plant response rating, Surinam grass",surinam grass; [11],85
same,"Plant response rating, Surinam grass",surinam grass; [12],96
same,"Plant response rating, Surinam grass",surinam grass; Rate 500 g/ha; Preemergence; 0 to 100 scale,98
same,"Plant response rating, Tall Mallow",tall mallow; [3],0
same,"Plant response rating, Tall Mallow",tall mallow; [4],0
same,Tall Mallow plant response rating,tall mallow; [5],0
same,Tall Mallow plant response rating,tall mallow; [6],0
same,"Plant response rating, Tall Mallow",tall mallow; Rate 250 g/ha,0
same,"Plant response rating, Tall Mallow",tall mallow; Rate 500 g/ha,0
same,"Plant response rating, Green foxtail",Green foxtail [1]; Rate 250 g/ha,100
same,"Plant response rating, Green foxtail",Green foxtail [1]; Rate 500 g/ha,100
same,"Plant response rating, Green foxtail","Green foxtail [2]; Preemergence; Rate 16 g/ha; 0 to 100 scale, 0 no injury, 100 complete control",0
same,"Plant response rating, Green foxtail","Green foxtail [2]; Preemergence; Rate 32 g/ha; 0 to 100 scale, 0 no injury, 100 complete control",75
same,"Plant response rating, Green foxtail",Green foxtail [2]; [7],0
same,"Plant response rating, Green foxtail",Green foxtail [2]; [8],75
same,Green foxtail plant response rating,Green foxtail [2]; [9],85
same,"Plant response rating, Green foxtail",Green foxtail [2]; [9],85
same,Green foxtail plant response rating,Green foxtail [2]; [10],100
same,"Plant response rating, Green foxtail",Green foxtail [2]; [10],100
same,"Plant response rating, Green foxtail",Green foxtail [2]; [11],100
same,"Plant response rating, Green foxtail",Green foxtail [2]; [12],100
